Laboratory results as given in patent publication US20240252662A1, “PEPTIDE DRUG CONJUGATES SPECIFIC TO FIBRONECTIN ISOTYPES FOR CANCER THERAPY” (priority 2021, published 2024).
“Also recorded” adds a separate entry of the source.

Columns and labels:
[1] = tested on: PC3 prostate tumor xenografts; conditions: for tumor volume by the end of the treatment (mean±SD): daily i.p. 7.34 μmol/kg/day for 29 days, n=6, PBS control 1223±136 mm^3
From the text: (§1) Anti-tumor efficacy of ZD2-HZ-JAAP conjugate was also investigated using the mice bearing PC3 prostate or 4T1 breast tumor xenografts. For tumor xenografts, PC3 prostate or 4T1 breast cancer cells suspended in Matrigel-PBS were subcutaneously injected into the flank of nude mice or mammary fat pads of BALB/C mice, respectively. Tumor volumes were monitored and measured twice a week using a Vernier caliper. When the average tumor volumes reached 100 mm^3 for PC3 tumors, and 45 mm^3 for 4T1 tumors, the mice bearing tumor xenografts were randomized into PBS control, JQ1 and ZD2-HZ-JAAP treatment groups (n=6 for PC3 tumors or 5 for 4T1 tumors). Free JQ1 and ZD2-HZ-JAAP conjugates were administrated by daily intraperitoneal injection for 29 days at a dose of 7.34 μmol/kg/day. Tumor size and bodyweight were monitored twice a week. The tumor sizes were measured with Vernier calipers, and tumor volumes were calculated using the equation V=(L*W2)/2.

[2] = tested on: PC3 prostate cancer, 4T1 and MDA-MB-231 breast cancer cells; assay: cell cytotoxicity of DOX conjugates in PC3, 4T1 and MDA-MB-231 cells; type: cell-based; conditions: at 2.5, 5 and 10 μM; compared with doxorubicin; FIG. 11
Experimental: The reason for the lower cytotoxicity is the slow release of DOX from the ZD2-AM-DOX conjugated with an amide bond.
The cell cytotoxicity of the ZD2-PEG-HZ-DOX was tested using PC3 prostate cancer, 4T1 and MDA-MB-231 breast cancer cells at concentrations of […].

[3] = tested on: DLD-1-DR drug resistant colon cancer, PANC-1 and BXPC3 pancreatic cancer, CAL27, SCC4 and HSC3 head and neck cancer cells, MDA-MB-231 and 4T1 breast cancer …; assay: cell cytotoxicity of ZD2-HZ-JAAP in cancer cell panel; type: cell-based; conditions: after 48 hours incubation; compared with JQ1 or JAAP; FIG. 2
Experimental: FIG. 2 provides graphs showing the cell viability of different cancer cells treated with ZD2-HZ-JAAP.
The cell cytotoxicity of ZD2-HZ-JAAP was tested using DLD-1-DR drug resistant colon cancer, PANC-1 and BXPC3 pancreatic cancer, CAL27, SCC4 and HSC3 head and neck cancer cells, MDA-MB-231 and 4T1 breast cancer cells, PC3 and C4-2 prostate cancer cells.

[4] = tested on: human MDA-MB-231 triple negative breast cancer tumors; assay: in vivo anti-tumor activity of ZD2-HZ-JAAP, MDA-MB-231 tumors; design: species or system nude mice
Experimental: The in vivo anti-tumor activity of ZD2-HZ-JAAP was evaluated in the nude mice carrying human MDA-MB-231 triple negative breast cancer tumors. The ZD2-HZ-JAAP drug conjugate was administrated to the mice with human MDA-MB-231 tumors by daily i.p. injection at a dose of 4.4 μmol/kg/day for 30 days. The tumor sizes and body weights of the mice were measured twice a week. The tumor growth was also monitored using bioluminescence imaging on the day 1, 16, and 25 after drug administration, and MRI imaging on the day 7 and 28 after the drug administration. For the ZD2-HZ-JAAP treatment group the tumor growth was inhibited with average tumor size of 80 mm^3 after 30-days of drug treatment, while for the no-treatment control group the tumors were kept growing with average tumor size of 580 mm^3 after 30-days of no treatment. […] In literature, the treatment dose of JQ1 is 50 mg/kg/day or 0.11 mmol/kg/day by i.p. injection to treat the mice with tumors. The dose of ZD2-HZ-JAAP administered by the inventors is 4.4 μmol/kg/day, which is 25-times lower than JQ1 dose. […] Since ZD2-HZ-JAAP is a target-drug that is delivered and accumulated to the tumor site, which results in low toxicity for normal tissues. Target-drug delivery results in high drug concentration at tumor site, and low concentration at normal tissues with efficient killing of tumor cells and low toxicity to normal cells.

[5] = tested on: 4T1 breast tumor xenografts; assay: anti-tumor efficacy of ZD2-HZ-JAAP, 4T1 breast tumor xenografts; type: in vivo, BALB/C mice; conditions: daily i.p. 7.34 μmol/kg/day for 29 days; n=5; PBS control 645±240 mm^3
From the text: as §1

[6] = tested on: 4T1 breast tumor xenografts; conditions: i.p. 8.28 μmol/kg/week
Experimental: Anti-tumor efficacy of ZD2-HZ-DOX conjugate was investigated using the mice bearing 4T1 breast tumor xenografts. For tumor xenografts, 2×10^5 4T1 breast cancer cells suspended in Matrigel-PBS were injected into the mammary fat pads of each BALB/C mouse. Tumor volumes were monitored and measured twice a week using a Vernier caliper. When the average tumor volumes reached 100 mm^3, the BALB/C mice bearing 4T1 breast tumors were randomized into PBS control, free doxorubicin and ZD2-HZ-DOX treatment groups (n=5). Free doxorubicin and ZD2-HZ-DOX conjugates were administrated by intraperitoneal injection for 23 days at a dose of 8.28 μmol/kg/week with 3-injections per week, and 2.76 μmol/kg for each injection. Tumor size and bodyweight were monitored twice a week. The tumor sizes were measured with Vernier calipers, and tumor volumes were calculated using the equation V=(L*W2)/2.

Structure (SMILES): Cc1sc2c(c1C)C(c1ccc(Cl)cc1)=N[C@@H](CC(=O)OC(C)(C)C)c1nnc(C)n1-2 [JQ1, reference compound]
- tumor volume by the end of the treatment (mean±SD) [1]: 537±170 mm^3
- suppression of tumor growth ([1]; same dose as ZD2-HZ-JAAP, 7.34 μmol/kg/day i.p.): didn't efficiently suppress tumor growth

Structure (SMILES): Cc1ccc(C(Cl)(c2ccccc2)c2ccccc2Cl)cc1 (stereo not shown) [ZD2-AM-DOX]
- cell cytotoxicity [2]: lower than that of doxorubicin

Structure (SMILES): Cc1ccc(C(Cl)(c2ccccc2)c2ccccc2Cl)cc1 (stereo not shown) [ZD2-HZ-JAAP]
- cell cytotoxicity [3]: lower than that of JQ1 or JAAP
- tumor growth inhibition ([4]; 4.4 μmol/kg/day, 25-times lower than literature JQ1 dose): efficiently inhibited the triple-negative breast cancer tumor growth
- average tumor size ([4]; after 30 days of treatment, daily i.p. 4.4 μmol/kg/day, no-treatment control 580 mm^3): 80 mm^3
- body weight of the mice ([4]; daily i.p. 4.4 μmol/kg/day for 30 days, vs no-treatment group): kept growing; also recorded: no significant difference
- tumor volume by the end of the treatment (mean±SD) [1]: 150±80 mm^3
- survival during treatment period ([1]; mice bearing PC3 or 4T1 tumors, 29 days of treatment, 7.34 μmol/kg/day i.p.): all mice were survived
- bodyweight change relative to initial weight ([1]; mice bearing PC3 or 4T1 tumors, daily i.p. 7.34 μmol/kg/day, 29 days): ≤ 10%
- tumor volume by the end of the treatment (mean±SD) [5]: 46±30 mm^3

Structure (SMILES): COc1cccc2c1C(=O)c1c(O)c3c(c(O)c1C2=O)C[C@@](O)(C(=O)CO)C[C@@H]3O[C@H]1C[C@H](N)[C@H](O)[C@H](C)O1 [doxorubicin]
- survival ([6]; 24-day treatment period): One mouse died on day 10, and all remaining mice died on day 11
- loss of bodyweight relative to initial weight ([6]; at day 10): 25%
